Test results from ChEMBL document CHEMBL1134585, “New 3'-azido-3'-deoxythymidin-5'-yl O-(4-hydroxyalkyl or -alkenyl or -alkylepoxide) carbonate prodrugs: synthesis and anti-HIV evaluation” (J Med Chem, 2001).

Key:
[1] = half life time required for 50% hydrolysis of prodrugs to AZT at 37 degrees upon incubation in normal human serum(NHS); format: ADME
[2] = half life time required for 50% hydrolysis of prodrugs to AZT at 37 degrees upon incubation in Phosphate buffer saline(PBS), (0% of AZT was released); format: ADME
[3] = Partition coefficient (logP); format: physicochemical; details: octanol/water
[4] = half life time required for 50% hydrolysis of prodrugs to AZT at 37 degrees upon incubation in Phosphate buffer saline(PBS), (8% of AZT was released); format: ADME
MT4 [5] = experiment: Conc. required to cause 50% death of uninfected MT-4 cells; format: functional; details: Homo sapiens
MT4 [6] = experiment: Conc. required to inhibit the cytopathicity on HIV-1 by 50% on MT-4 cells; format: functional, cell-based; details: Homo sapiens
Homo sapiens [7] = species on record: Homo sapiens; experiment: Conc. required to cause 50% death of uninfected PBMCs; format: functional
Homo sapiens [8] = species on record: Homo sapiens; experiment: Conc. required to inhibit HIV-1 replication on PBMCs by 50%; format: functional, organism-based
[9] = half life time required for 50% hydrolysis of prodrugs to AZT at 37 degrees upon incubation in Phosphate buffer saline(PBS), (% of AZT was released); format: ADME
MT4 [10] = experiment: Conc. required to inhibit the cytopathicity of HIV-1 by 50% on MT-4 cells; format: functional, cell-based; details: Homo sapiens
[11] = half life time required for 50% hydrolysis of prodrugs to AZT at 37 degrees upon incubation in Phosphate buffer saline(PBS), (8 % of AZT was released); format: ADME
[12] = half life time required for 50% hydrolysis of prodrugs to AZT at 37 degrees upon incubation in Phosphate buffer saline(PBS), (6% of AZT was released); format: ADME

T1/2 [1] [min]	logP [3]	EC50 (Homo sapiens [8]) [nM]	Structure (SMILES)	CC50 (MT4 [5]) [nM]	EC50 (MT4 [6]) [nM]	CC50 (Homo sapiens [7]) [nM]	further results
16			Cc1cn(C2CC(N=[N+]=[N-])C(COC(=O)OCCCCCO)O2)c(=O)[nH]c1=O (centres undefined)				
7			Cc1cn(C2CC(N=[N+]=[N-])C(COC(=O)OCCCCCCO)O2)c(=O)[nH]c1=O (centres undefined)				
2			Cc1cn(C2CC(N=[N+]=[N-])C(COC(=O)OCCCCCCCCO)O2)c(=O)[nH]c1=O (centres undefined)				
30		31	Cc1cn(C2CC(N=[N+]=[N-])C(COC(=O)OCCCCO)O2)c(=O)[nH]c1=O (centres undefined)	262000	6	> 20000	T1/2 [12]: > 1440 min

Further lines, the compound ahead of its results:

Structure (SMILES)	T1/2 [1] [min]	logP [3]	EC50 (Homo sapiens [8]) [nM]	CC50 (MT4 [5]) [nM]	EC50 (MT4 [6]) [nM]	CC50 (Homo sapiens [7]) [nM]	further results
CCCCOC(=O)OCC1OC(n2cc(C)c(=O)[nH]c2=O)CC1N=[N+]=[N-] (centres undefined)	9						T1/2 [2]: > 1440 min
Cc1cn(C2CC(N=[N+]=[N-])C(COC(=O)OCCO)O2)c(=O)[nH]c1=O (centres undefined)	< 1						
Cc1cn([C@H]2C[C@H](N=[N+]=[N-])[C@@H](COC(=O)OC/C=C\CO)O2)c(=O)[nH]c1=O	45	0.59	52	179000	18	> 20000	T1/2 [4]: > 1440 min
Cc1cn([C@H]2C[C@H](N=[N+]=[N-])[C@@H](COC(=O)OC/C=C/CO)O2)c(=O)[nH]c1=O	26	-0.59	66	162000		> 20000	T1/2 [9]: > 1440 min; EC50 (MT4 [10]): 8 nM
Cc1cn([C@H]2C[C@H](N=[N+]=[N-])[C@@H](COC(=O)OC[C@H]3O[C@H]3CO)O2)c(=O)[nH]c1=O	80	0.47	103	159000	13	> 20000	T1/2 [11]: > 1440 min
Cc1cn(C2CC(N=[N+]=[N-])C(COC(=O)OCCCO)O2)c(=O)[nH]c1=O (centres undefined)	10						
Cc1cn([C@H]2C[C@H](N=[N+]=[N-])[C@@H](CO)O2)c(=O)[nH]c1=O [ZIDOVUDINE]		0.88	56	42000	12	15000	
